Data: article PMC10766610, “DCAF1-based PROTACs with activity against clinically validated targets overcoming intrinsic- and acquired-degrader resistance” (Nature Communications, 2024)

Assays:
[1] = system: TMD8 BTK-GFP/mCh cells; test: Viability by FSC/SSC gate (flow cytometry) in TMD8 BTK-GFP/mCh cells; format: cell-based, human
In short: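 TMD8 BTK-GFP/mCh cells (25,000/well) dosed with compound for 24 h and analysed by flow cytometry. Viability is the decline in percentage of single cells within an FSC/SSC gate defined by DMSO-treated cells; three biological replicates, 4-parameter logistic fit.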

[2] = system: TMD8 cells; test: Whole proteomics profile, DBt-10 vs (19), TMD8 cells; format: cell-based, human; details: 5 µM DBt-10 vs 5 µM (19), 6 h
Description: HEK293T and TMD8 cells were cultured according to protocol and 3 million cells were plated per sample and recovered for 24 h. The following day, cells were treated with indicated compounds at corresponding concentrations for 6 h. Cells were then harvested and washed 2× with PBS before removing all liquid and snap freezing in liquid nitrogen before sample preparation for proteomics.
TMT-labeled peptides were generated with the iST-NHS kit (PreOmics) and TMT10plex (duplicates per condition) or TMT18plex (triplicates per condition) reagent (Thermo Fisher Scientific). Equal amounts of labeled peptides were pooled and separated on a high pH fractionation system with a water-acetonitrile gradient containing 10 mM ammonium formate, pH 11[88]. Alternating rows of the resulting 72 fractions were pooled into 24 samples, dried and resuspended in water containing 0.1% formic acid.
The LC-MS analysis was carried out on an EASY-nLC 1200 system coupled to an Orbitrap Fusion Lumos Tribrid mass spectrometer (Thermo Fisher Scientific). […]
LC-MS raw files were analyzed with Proteome Discoverer 2.4 (Thermo Fisher Scientific). […] TMT reporter ions of the MS3 spectra were integrated with a 20 ppm tolerance and the reporter ion intensities were used for quantification. […] Protein relative quantification was performed using an in-house developed R (v.3.6) script. […]

[3] = biological target: T1, BRD7 (Homo sapiens, UniProt Q9NPI1); test: BRD7-HiBiT protein abundance luminescence assay in HEK293 cells
T1 sequence (Q9NPI1 1-651): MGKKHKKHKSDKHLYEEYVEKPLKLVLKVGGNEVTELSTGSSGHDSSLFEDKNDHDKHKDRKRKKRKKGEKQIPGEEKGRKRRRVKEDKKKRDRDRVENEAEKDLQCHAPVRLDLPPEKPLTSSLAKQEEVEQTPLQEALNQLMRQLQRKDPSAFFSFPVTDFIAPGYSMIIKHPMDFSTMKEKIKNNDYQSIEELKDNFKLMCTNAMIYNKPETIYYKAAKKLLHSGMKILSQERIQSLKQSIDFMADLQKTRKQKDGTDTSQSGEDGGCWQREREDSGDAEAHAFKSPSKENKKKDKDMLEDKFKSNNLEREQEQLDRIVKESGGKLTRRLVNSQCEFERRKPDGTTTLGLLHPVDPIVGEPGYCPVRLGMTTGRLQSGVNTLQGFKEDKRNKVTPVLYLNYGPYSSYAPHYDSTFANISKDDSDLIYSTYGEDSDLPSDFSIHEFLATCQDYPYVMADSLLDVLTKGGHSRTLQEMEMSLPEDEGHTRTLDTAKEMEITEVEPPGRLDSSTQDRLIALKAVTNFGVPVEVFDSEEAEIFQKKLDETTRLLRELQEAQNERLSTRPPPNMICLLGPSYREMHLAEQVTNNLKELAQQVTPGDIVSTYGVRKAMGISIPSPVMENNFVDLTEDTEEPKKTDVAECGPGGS
Description: HEK293/BRD9-HiBiT pools (PROMEGA # CS3023120) and HEK293/BRD7-HiBiT pools (PROMEGA # CS3023124) were purchased from Promega. We performed clonal selection for HEK293/BRD9-HiBiT cell line using single-cell sorting and screening for HiBiT expression using Nano-Glo HiBiT Lytic Detection System (Promega # N3030). The HEK293/BRD9-HiBiT clone and HEK293/BRD7-HiBiT pool to perform standard HiBiT assays.

CC(=O)N1CCN(c2ccc3c(NCCN)nc(C4(c5ccc(Cl)cc5)CCCCC4)nc3c2)CC1 [compound 13]
concentrations with loss of viability ([1]; TMD8 BTK-GFP/mCh, 24 h): > 5 µM | concentrations leading to cellular toxicity ([1]; discussion): 5 to 10 µM

Cc1c(NC(=O)N2CC(O)(CC(C)(C)C)C2)cc(F)cc1-c1ncnc2[nH]c(-c3cnn(CC(=O)N4CCC5(CC4)CN(CCNC(=O)CCCC(=O)N4CCN(c6ccc7c(NCCN)nc(C8(c9ccc(Cl)cc9)CCCCC8)nc7c6)CC4)CCO5)c3)cc12 [DBt-10]
only other protein with significantly reduced abundance (proteomics) [2]: LIM domain kinase 1 (LIMK1) | strongest reduced protein (proteomics) [2]: BTK

COc1cc(-c2cn(C)c(=O)c3cnccc23)c(OC)cc1CN1CCC(OCCCCCC(=O)N2CCN(c3ccc4c(NCCN)nc(C5(c6ccc(Cl)cc6)CCCCC5)nc4c3)CC2)CC1 [DBr-1]
maximal observed degradation (BRD7), % in brackets ([3]; 2 h): 65% | DC50 ([3]; read-out: rel. DC50 (BRD7), 2 h): 0.36 µM
